{
  "source": "patent US20050153976A1",
  "about": "“Pharmaceutical compositions” (SCHERING CORPORATION, priority 2003, published 2005)",
  "key": {"[1]": {"experiment": "pKa and log P of the compound of formula I", "type": "physicochemical", "description": "(§1) A particularly useful compound for use in the present invention is the compound represented by the chemical structural formula I comprising: [drawing 5] This compound is chemically known as 1-[(1-acetyl-4-piperidinyl)acetyl]-2(S)-(1,1-dimethylethyl)-4(S)*4-[phenyl [4(trifluoromethoxy)phenyl]methyl]piperazine and has a molecular weight of 559.3 g/mole. It is a weak base with a pKa of 4.0 corresponding to the ionization of the piperazine ring. The value of log P is 3.0 and the log D at pH 7.4 is calculated to be 2.9. […] The compound is very soluble in both ethanol and methanol (>150 mg/mL). The solubility in most common organic solvents, such as acetonitrile, dimethyl sulfoxide (DMSO), methylene chloride, ethyl acetate, isopropyl alcohol, hexane, and acetone, generally exceeds 50 mg/mL. The free form of the compound is amorphous, but a crystalline hydrogen sulfate salt of this compound can be made. The X-ray powder diffraction (XRPD) patterns of the amorphous free base and the crystalline hydrogen sulfate salt are shown in FIG. 1."}, "[2]": {"experiment": "Solubility of the compound in aqueous media and in organic solvents", "type": "physicochemical", "description": "as §1"}, "[3]": {"experiment": "Evaluation of suspension in 0.4% HPMC solution or water (pH, chemical and physical stability, re-suspensibility)", "type": "physicochemical", "description": "With proper ratios of carrier to compound, free flowing and uniform powders or solids can be produced. These powders or solids should have the original molecular characteristics of the adsorbed chemicals. The residual solvent (EtOH) used in this process can be reduced to 20 ppm level. These flowable powders or solids are suspended in an aqueous solution, such as 0.4% HPMC solution or water.\nThe flowable powders or solids have been tested to be very stable for at least two weeks chemically and physically at room temperature (RT) and ICH RH4 conditions (40° C. and 75% relative humility). The suspension solutions (SiO2-Compound or MCC-Compound in 0.4% HPMC solution or water) are also very stable both chemically and physically for at least two weeks at room temperature. The evaluation of SiO2-Compound and MCC-Compound are shown in Example 1.\nPreparation of SiO2-Compound of Formula I samples may be carried out by the following representative steps. Uniformly mix 0.5 grams of API free form (amorphous) with 1.0 grams of SiO2 (Syliod®) 244 FP) in a container using a magnetic stirrer. Then add 5.0 mL of ethanol to the container to dissolve the compound completely. Stir at room temperature and dry the solution under N2 gas until a slurry is formed. Dry the slurry at increasing temperature beginning at 25° C. ending at 50° C. over a duration of 1 hour and at 50° C. for overnight under house vacuum. […]"}, "[4]": {"experiment": "In-vivo pharmacokinetic (PK) studies", "design": "species or system rats and dogs", "conditions": "Dose 10 mg/kg", "description": "In-vivo pharmacokinetic (PK) studies in rats and dogs with these compositions show better PK results in terms of AUC, Cmax, and dose proportionality than that of compound only."}},
  "note": "“And” between values parts separate entries of the source, which are not always exact repeats. Identical values can stand only once.",
  "data": [
    {"smiles": "CC(=O)N1CCC(CC(=O)N2CCN(C(c3ccccc3)c3ccc(OC(F)(F)F)cc3)C[C@@H]2C(C)(C)C)CC1", "note": "(stereo partly drawn) [Compound of Formula I, 1-[(1-acetyl-4-piperidinyl)acetyl]-2(S)-(1,1-dimethylethyl)-4(S)*4-[phenyl [4(trifluoromethoxy)phenyl]methyl]piperazine]", "values": [
      {"measurement": "logP", "setting": "[1]", "result": 3},
      {"measurement": "pKa", "setting": "[1]; weak base, ionization of the piperazine ring", "result": 4},
      {"measurement": "solubility", "setting": "[2]; aqueous media, aqueous buffer, pH 4.0", "result": "1.9 µg/mL and 3.4 µM"},
      {"measurement": "solubility", "setting": "[2]; aqueous media, pH 2.3, aqueous buffer", "result": "74.6 µg/mL and 133 µM"},
      {"measurement": "solubility", "setting": "[2]; aqueous media, pH 7.4, aqueous buffer, pH greater than 7.4", "result": "< 1 µg/mL and < 2 µM"},
      {"measurement": "solubility", "setting": "[2]; organic solvent or mixture, in both ethanol and methanol", "result": "> 150", "unit": "mg/mL"},
      {"measurement": "solubility", "setting": "[2]; organic solvent or mixture, most common organic solvents (acetonitrile, DMSO, methylene chloride, ethyl acetate, isopropyl alcohol, hexane, acetone)", "result": "> 50", "unit": "mg/mL"},
      {"measurement": "behaviour when suspended in 0.4% HPMC solution", "setting": "[3]; SiO2 sample at 100 mg/mL, MCC sample at 102 mg/mL, free form as reference", "result": "forms a gum"},
      {"measurement": "behaviour when suspended in aqueous media", "setting": "[3]; aqueous media", "result": "forms a gum"},
      {"measurement": "% AUC (infinity)", "setting": "[4]", "result": 1.2, "unit": "%"},
      {"measurement": "AUC(0-t)", "setting": "[4]; in vivo", "result": "2520 ng·h/mL and 4.5 µM·h"},
      {"measurement": "Cmax", "setting": "[4]; in vivo", "result": "260 ng/mL and 500 nM"},
      {"measurement": "Tmax", "setting": "[4]; in vivo", "result": 3.3, "unit": "h"},
      {"measurement": "AUC(0-inf)", "setting": "[4]; in vivo, read-out: AUC (infinity)", "result": "4.6 µM·h and 2550 ng·h/mL"}
    ]}
  ]
}
